Experimental data reported in patent US20110039885A1, “METHODS FOR INCREASING ENDOTHELIAL PROGENITOR CELLS” (FibroGen, Inc., priority 2007, published 2011).

What was measured:
Assay type in all cases: in vivo, mouse
[1] = tested on: endothelial progenitor cells (EPCs), double positive KDR+/CD34+ cells, in blood; experiment: Blood EPC levels by FACS after oral dosing in mice; details: for Blood EPCs / Percent Blood EPCs: blood 6 h after final dose; for Blood EPCs Fold Increase Over Control / Percent Blood EPCs Fold Increase Over Control: vs vehicle control
Procedure: (§1) To examine the effect of compounds and methods of the present invention on endothelial progenitor cell (EPC) mobilization and EPC levels, the following studies were performed. Male Swiss-Webster mice were administered various compounds of the present invention via oral gavage using a ball-tipped gavage needle. Animals treated by oral gavage received a 10 ml/kg volume of either 0.5% carboxymethyl cellulose (CMC) with 0.1% Polysorbate 80 (vehicle control) or various doses (10-100 mg/kg) of a compound of the present invention in 0.5% CMC with 0.1% Polysorbate 80. Animals were dosed once daily for 3 or 4 days. Six hours after the final dosing, 200 μl blood samples were collected for detection of EPCs by FACS analysis as previously described. (Vasa et al. (2001) Circ Res 89:e1-e7.) Briefly, mononuclear cells were isolated from whole blood samples by erythrocyte depletion using red blood cell lysis buffer (eBioscience) according to the manufacturer's instructions. The remaining cells were incubated for one hour with monoclonal antibodies directed against mouse CD34 and mouse KDR, cell surface markers for EPCs (BD Pharmingen). Following incubation with the anti-CD34 and anti-KDR monoclonal antibodies, the samples were washed three times with sort buffer (PBS, 1% fetal bovine serum) and resuspended in sort buffer containing 50 μg/ml of propidium iodide. Samples were then analyzed for the presence and quantitation of EPCs by flow cytometry (FACS Calibur, Becton Dickinson). The cytometer was set to acquire 10 000 events. Two or three samples obtained from each animal were analyzed and the average recorded. EPCs were determined as double positive KDR+/CD34+ cells.

[2] = tested on: endothelial progenitor cells (EPCs), KDR+/CD34+ cells, in bone marrow; experiment: Bone marrow EPC levels by FACS after oral dosing in mice; details: for Percent Bone Marrow EPCs: tibia bone marrow 6 h after final dose; for Percent Bone Marrow EPCs Fold Increase Over Control: vs vehicle control
Procedure: as §1
To examine the effect of compounds and methods of the present invention on EPC levels in bone marrow, the following studies were performed. Male Swiss-Webster mice were administered various compounds of the present invention via oral gavage using a ball-tipped gavage needle. Animals treated by oral gavage received a 10 ml/kg volume of either 0.5% carboxymethyl cellulose (CMC) with 0.1% Polysorbate 80 (vehicle control) or various doses (10-100 mg/kg) of a compound of the present invention in 0.5% CMC with 0.1% Polysorbate 80. Animals were dosed once daily for 3 or 4 days. Six hours after the final dosing, bone marrow samples were taken from one tibia of each animal and suspended in buffer (PBS with 1% fetal bovine serum). Bone marrow suspensions were then filtered through nylon filters to remove stromal cells. Following filtration, the remaining cells were counted manually using a hemocytometer. Detection and quantitation of EPCs was performed by FACS analysis as described above in Example 1.

[3] = tested on: colony-forming unit-endothelial cells (CFU-EC) from blood; experiment: EPC colony forming assay (CFU-EC) ex vivo, blood of dosed mice; details: for Blood CFU-EC: blood 6 h after final dose, 12 days culture; for Blood CFU-EC Fold Increase Over Control: vs vehicle control
Procedure: To examine the effect of compounds and methods of the present invention on increasing EPCs, wherein the EPCs are functional EPCs, i.e., EPCs that are able to differentiate into mature endothelial cells, the following studies were performed in which the frequency of endothelial colony-forming cells was evaluated ex vivo. In one series of experiments, male Swiss-Webster mice were administered various compounds of the present invention via oral gavage using a ball-tipped gavage needle. Animals treated by oral gavage received a 10 ml/kg volume of either 0.5% carboxymethyl cellulose (CMC) with 0.1% Polysorbate 80 (vehicle control) or various doses (10-100 mg/kg) of a compound of the present invention in 0.5% CMC with 0.1% Polysorbate 80. Animals were dosed once daily for 3 or 4 days. Six hours after the final dosing, 200 μl blood samples were collected for analysis of EPC function and differentiation using an EPC colony forming assay. EPC colony forming assays were carried out as previously described. (Murphy et al. (2007) Arterioscler Thromb Vasc Biol 27:936-942.) Briefly, mononuclear cells were isolated from whole blood samples by erythrocyte depletion using red blood cell lysis buffer (eBioscience) according to the manufacturer's instructions. The remaining cells (50,000 cells/well) were plated on fibronectin coated 24-well dishes (BD, BioSciences Discovery Labware) and incubated in endothelial growth media (EGM-2 media, Cambrex) for 12 days. At the end the incubation period, EPC colonies were counted.

[4] = tested on: colony-forming unit-endothelial cells (CFU-EC) from bone marrow; experiment: EPC colony forming assay (CFU-EC) ex vivo, bone marrow of dosed mice; details: for Bone Marrow CFU-EC: tibia bone marrow 6 h after final dose, 12 days culture; for Bone Marrow CFU-EC Fold Increase Over Control: vs vehicle control
Procedure: EPC colony forming assays were carried out as previously described. (Murphy et al. (2007) Arterioscler Thromb Vasc Biol 27:936-942.) Briefly, mononuclear cells were isolated from whole blood samples by erythrocyte depletion using red blood cell lysis buffer (eBioscience) according to the manufacturer's instructions. The remaining cells (50,000 cells/well) were plated on fibronectin coated 24-well dishes (BD, BioSciences Discovery Labware) and incubated in endothelial growth media (EGM-2 media, Cambrex) for 12 days. At the end the incubation period, EPC colonies were counted. In another series of experiments, male Swiss-Webster mice were administered various compounds of the present invention via oral gavage using a ball-tipped gavage needle. Animals treated by oral gavage received a 10 ml/kg volume of either 0.5% carboxymethyl cellulose (CMC) with 0.1% Polysorbate 80 (vehicle control) or various doses (10-100 mg/kg) of a compound of the present invention in 0.5% CMC with 0.1% Polysorbate 80. Animals were dosed once daily for 3 or 4 days. Six hours after the final dosing, bone marrow samples were taken from one tibia of each animal. Bone marrow samples were then analyzed for EPC function and differentiation using an EPC colony forming assay as described above.

[5] = 60 mg/kg oral gavage once daily, 3 days
[6] = 100 mg/kg oral gavage once daily, 4 days
[7] = 20 mg/kg oral gavage once daily, 3 days
[8] = 20 mg/kg oral gavage once daily, 4 days
[9] = 60 mg/kg oral gavage once daily, 4 days

Cc1nc(C(=O)NCC(=O)O)c(O)c2ccc(Oc3ccccc3)cc12 [Compound B, [(4-Hydroxy-1-methyl-7-phenoxy-isoquinoline-3-carbonyl)-amino]-acetic acid]
Blood EPCs [1, 5]: 10.4 cells/μl
Percent Blood EPCs [1, 5]: 1.0 % gated cells
Blood EPCs Fold Increase Over Control ([1]; 60 mg/kg oral, 3 days): 1.0 fold
Percent Blood EPCs Fold Increase Over Control ([1]; 60 mg/kg oral, 3 days): 0.8 fold
Blood EPCs [1, 6]: 304.0 cells/μl
Percent Blood EPCs [1, 6]: 3.0 % gated cells
Blood EPCs Fold Increase Over Control ([1]; 100 mg/kg oral, 4 days): 8.2 fold
Percent Blood EPCs Fold Increase Over Control ([1]; 100 mg/kg oral, 4 days): 4.3 fold
Percent Bone Marrow EPCs [2, 5]: 9.0 % gated cells
Percent Bone Marrow EPCs Fold Increase Over Control ([2]; 60 mg/kg oral, 3 days): 2.7 fold
Percent Bone Marrow EPCs [2, 6]: 16.1 % gated cells
Percent Bone Marrow EPCs Fold Increase Over Control ([2]; 100 mg/kg oral, 4 days): 2.1 fold
Blood CFU-EC [3, 5]: 12.4 colonies/50,000 cells
Blood CFU-EC Fold Increase Over Control ([3]; 60 mg/kg oral, 3 days): 6.2 fold
Blood CFU-EC [3, 6]: 9.3 colonies/50,000 cells
Blood CFU-EC Fold Increase Over Control ([3]; 100 mg/kg oral, 4 days): 1.9 fold
Bone Marrow CFU-EC [4, 5]: 22.0 colonies/50,000 cells
Bone Marrow CFU-EC Fold Increase Over Control ([4]; 60 mg/kg oral, 3 days): 2.2 fold
Bone Marrow CFU-EC [4, 6]: 22.4 colonies/50,000 cells
Bone Marrow CFU-EC Fold Increase Over Control ([4]; 100 mg/kg oral, 4 days): 2.9 fold

Cc1cccc(C)c1Oc1ccc2c(C#N)nc(C(=O)NCC(=O)O)c(O)c2c1 [Compound C, {[1-Cyano-6-(2,6-dimethyl-phenoxy)-4-hydroxy-isoquinoline-3-carbonyl]-amino}-acetic acid]
Blood EPCs [1, 7]: 151.9 cells/μl
Percent Blood EPCs [1, 7]: 1.3 % gated cells
Blood EPCs [1, 8]: 125.9 cells/μl
Percent Blood EPCs [1, 8]: 0.7 % gated cells
Blood EPCs Fold Increase Over Control ([1]; 20 mg/kg oral, 3 days): 4.2 fold
Percent Blood EPCs Fold Increase Over Control ([1]; 20 mg/kg oral, 3 days): 1.8 fold
Blood EPCs Fold Increase Over Control ([1]; 20 mg/kg oral, 4 days): 2.5 fold
Percent Blood EPCs Fold Increase Over Control ([1]; 20 mg/kg oral, 4 days): 1.0 fold
Blood EPCs [1, 5]: 195.1 cells/μl
Percent Blood EPCs [1, 5]: 1.4 % gated cells
Blood EPCs [1, 9]: 240.0 cells/μl
Percent Blood EPCs [1, 9]: 1.0 % gated cells
Blood EPCs Fold Increase Over Control ([1]; 60 mg/kg oral, 3 days): 5.4 fold
Percent Blood EPCs Fold Increase Over Control ([1]; 60 mg/kg oral, 3 days): 1.9 fold
Blood EPCs Fold Increase Over Control ([1]; 60 mg/kg oral, 4 days): 4.7 fold
Percent Blood EPCs Fold Increase Over Control ([1]; 60 mg/kg oral, 4 days): 1.3 fold
Percent Bone Marrow EPCs [2, 7]: 2.2 % gated cells
Percent Bone Marrow EPCs [2, 8]: 0.6 % gated cells
Percent Bone Marrow EPCs Fold Increase Over Control ([2]; 20 mg/kg oral, 3 days): 2.2 fold
Percent Bone Marrow EPCs Fold Increase Over Control ([2]; 20 mg/kg oral, 4 days): 0.9 fold
Percent Bone Marrow EPCs [2, 5]: 3.2 % gated cells
Percent Bone Marrow EPCs [2, 9]: 0.9 % gated cells
Percent Bone Marrow EPCs Fold Increase Over Control ([2]; 60 mg/kg oral, 3 days): 3.2 fold
Percent Bone Marrow EPCs Fold Increase Over Control ([2]; 60 mg/kg oral, 4 days): 1.4 fold
Blood CFU-EC [3, 7]: 7.7 colonies/50,000 cells
Blood CFU-EC [3, 8]: 5.6 colonies/50,000 cells
Blood CFU-EC Fold Increase Over Control ([3]; 20 mg/kg oral, 3 days): 4.3 fold
Blood CFU-EC Fold Increase Over Control ([3]; 20 mg/kg oral, 4 days): 4.3 fold
Blood CFU-EC [3, 5]: 7.4 colonies/50,000 cells
Blood CFU-EC [3, 9]: 6.6 colonies/50,000 cells
Blood CFU-EC Fold Increase Over Control ([3]; 60 mg/kg oral, 3 days): 4.14 fold
Blood CFU-EC Fold Increase Over Control ([3]; 60 mg/kg oral, 4 days): 5.1 fold
Bone Marrow CFU-EC [4, 7]: 25.7 colonies/50,000 cells
Bone Marrow CFU-EC [4, 8]: 26.0 colonies/50,000 cells
Bone Marrow CFU-EC Fold Increase Over Control ([4]; 20 mg/kg oral, 3 days): 5.1 fold
Bone Marrow CFU-EC Fold Increase Over Control ([4]; 20 mg/kg oral, 4 days): 1.9 fold
Bone Marrow CFU-EC [4, 5]: 28.0 colonies/50,000 cells
Bone Marrow CFU-EC [4, 9]: 61.0 colonies/50,000 cells
Bone Marrow CFU-EC Fold Increase Over Control ([4]; 60 mg/kg oral, 3 days): 5.6 fold
Bone Marrow CFU-EC Fold Increase Over Control ([4]; 60 mg/kg oral, 4 days): 4.5 fold

COc1ccc(Oc2ccc3c(O)c(C(=O)NCC(=O)O)ncc3c2)cc1 [Compound A, {[4-Hydroxy-7-(4-methoxy-phenoxy)-isoquinoline-3-carbonyl]-amino}-acetic acid]
Blood EPCs [1, 5]: 24.7 cells/μl
Percent Blood EPCs [1, 5]: 2.6 % gated cells
Blood EPCs Fold Increase Over Control ([1]; 60 mg/kg oral, 3 days): 2.4 fold
Percent Blood EPCs Fold Increase Over Control ([1]; 60 mg/kg oral, 3 days): 2.0 fold
Blood EPCs [1, 6]: 309.0 cells/μl
Percent Blood EPCs [1, 6]: 3.2 % gated cells
Blood EPCs Fold Increase Over Control ([1]; 100 mg/kg oral, 4 days): 8.4 fold
Percent Blood EPCs Fold Increase Over Control ([1]; 100 mg/kg oral, 4 days): 4.7 fold
Percent Bone Marrow EPCs [2, 5]: 6.7 % gated cells
Percent Bone Marrow EPCs Fold Increase Over Control ([2]; 60 mg/kg oral, 3 days): 2.0 fold
Percent Bone Marrow EPCs [2, 6]: 14.1 % gated cells
Percent Bone Marrow EPCs Fold Increase Over Control ([2]; 100 mg/kg oral, 4 days): 1.8 fold
Blood CFU-EC [3, 5]: 16.8 colonies/50,000 cells
Blood CFU-EC Fold Increase Over Control ([3]; 60 mg/kg oral, 3 days): 8.4 fold
Blood CFU-EC [3, 6]: 17.8 colonies/50,000 cells
Blood CFU-EC Fold Increase Over Control ([3]; 100 mg/kg oral, 4 days): 3.63 fold
Bone Marrow CFU-EC [4, 5]: 29.0 colonies/50,000 cells
Bone Marrow CFU-EC Fold Increase Over Control ([4]; 60 mg/kg oral, 3 days): 3.0 fold
Bone Marrow CFU-EC [4, 6]: 24.8 colonies/50,000 cells
Bone Marrow CFU-EC Fold Increase Over Control ([4]; 100 mg/kg oral, 4 days): 3.2 fold
